Results reported in ChEMBL document CHEMBL1123856, “Synthesis and biological activities of arginine-vasopressin analogues with 4-hydroxyproline in position 7” (1987).
Positions of bridges follow the written chain, without caps; N, C: chain ends. Non-standard residues stand in square brackets, D forms with d. Residues, ends and D or L forms follow the SMILES beside them. NMeA = CN[C@@H](C)C(=O)O; Mpa = O=C(O)CCS

Experiments:
Rattus norvegicus [1] = assay: Antidiuretic activity on water loaded, ethanol-anesthetized rat.; format: functional, Urine
Rattus norvegicus [2] = assay: Pressor activity on urethane-anesthetized, phenoxybenzamine-treated rat.; format: functional
Rattus norvegicus [3] = organism: Rattus norvegicus; assay: Uterine activity was meseared in isolated rat uterus in solutions in the absence No Mg2+ 0.5 mM in vitro; format: functional
Rattus norvegicus [4] = organism: Rattus norvegicus; assay: Uterine activity was meseared in isolated rat uterus in solutions in the presence Mg2+ 0.5 mM in vitro; format: functional

| SMILES | Antidiuretic activity (Rattus norvegicus [1]) [units/mg] | Pressor activity (Rattus norvegicus [2]) [units/mg] | Uterine activity (Rattus norvegicus [3]) [units/mg] | Uterine activity (Rattus norvegicus [4]) [IU/mg] |
| --- | --- | --- | --- | --- |
| NC(=O)CC[C@@H]1NC(=O)[C@H](Cc2ccccc2)NC(=O)[C@H](Cc2ccc(O)cc2)NC(=O)CCSSC[C@@H](C(=O)N2CC=C[C@H]2C(=O)N[C@@H](CCCN=C(N)N)C(=O)NCC(N)=O)NC(=O)[C@H](CC(N)=O)NC1=O | 4130 | 240 | 69 |  |
| CC(C)C[C@H](NC(=O)[C@@H]1CSSC[C@H](N)C(=O)N[C@@H](Cc2ccc(O)cc2)C(=O)N[C@@H](Cc2ccccc2)C(=O)N[C@@H](CCC(N)=O)C(=O)N[C@@H](CC(N)=O)C(=O)N1)C(=O)N[C@@H](CCCN=C(N)N)C(=O)NCC(N)=O (H-CYFQNCLRG-NH2; disulfide 1-6) | 19 |  |  |  |
| C[C@@H](C(=O)N[C@@H](CCCN=C(N)N)C(=O)NCC(N)=O)N(C)C(=O)[C@@H]1CSSCCC(=O)N[C@@H](Cc2ccc(O)cc2)C(=O)N[C@@H](Cc2ccccc2)C(=O)N[C@@H](CCC(N)=O)C(=O)N[C@@H](CC(N)=O)C(=O)N1 ([Mpa]YFQNC[NMeA]RG-NH2; disulfide 1-6) | 113 | 1 | 2 | 8 |
| NC(=O)CC[C@@H]1NC(=O)[C@H](Cc2ccccc2)NC(=O)[C@H](Cc2ccc(O)cc2)NC(=O)[C@@H](N)CSSC[C@@H](C(=O)N2C[C@H](O)C[C@H]2C(=O)N[C@@H](CCCN=C(N)N)C(=O)NCC(N)=O)NC(=O)[C@H](CC(N)=O)NC1=O (stereo in doubt; form 1) | 712 | 4 | 73 | 268 |
| NC(=O)CC[C@@H]1NC(=O)[C@H](Cc2ccccc2)NC(=O)[C@H](Cc2ccc(O)cc2)NC(=O)[C@@H](N)CSSC[C@@H](C(=O)N2C[C@H](O)C[C@H]2C(=O)N[C@@H](CCCN=C(N)N)C(=O)NCC(N)=O)NC(=O)[C@H](CC(N)=O)NC1=O (stereo in doubt; form 2) | 780 | 1 | 225 | 285 |
| NC(=O)CC[C@@H]1NC(=O)[C@H](Cc2ccccc2)NC(=O)[C@H](Cc2ccc(O)cc2)NC(=O)[C@@H](N)CSSC[C@@H](C(=O)N2C[C@H](O)C[C@H]2C(=O)N[C@@H](CCCN=C(N)N)C(=O)NCC(N)=O)NC(=O)[C@H](CC(N)=O)NC1=O (stereo in doubt; form 3) | 614 | 8 | 63 | 176 |
| N=C(N)NCCC[C@@H](NC(=O)[C@@H]1CCCN1C(=O)[C@@H]1CSSCCC(=O)N[C@@H](Cc2ccc(O)cc2)C(=O)N[C@@H](Cc2ccccc2)C(=O)N[C@@H](CCC(N)=O)C(=O)N[C@@H](CC(N)=O)C(=O)N1)C(=O)NCC(N)=O [DESMOPRESSIN] | 1740 | 346 | 28 |  |
| N=C(N)NCCC[C@H](NC(=O)[C@@H]1CCCN1C(=O)[C@@H]1CSSC[C@H](N)C(=O)N[C@@H](Cc2ccc(O)cc2)C(=O)N[C@@H](Cc2ccccc2)C(=O)N[C@@H](CCC(N)=O)C(=O)N[C@@H](CC(N)=O)C(=O)N1)C(=O)NCC(N)=O [VASOPRESSIN] | 323 |  | 12 |  |
